From a melting point compilation (Tetko et al.; mined from patent text by program, amines drawn as free bases though some values may be those of a salt)

SMILES | melting point [°C]
CCC(=O)N(C)c1cccc(-c2ccnc3c(C(=O)c4ccco4)cnn23)c1 | 153 to 155
CCOC(=O)C1CNC(=O)CC1c1ccc(F)cc1 (centres undefined) | 116 to 120
CC(=O)NCC1CN(c2ccc(N3CCN(C4N=NC(=O)S4)CC3)c(F)c2)C(=O)O1 (centres undefined) | 173 to 175
Cn1c(-c2ccc(Cl)cc2)c(C#N)c(Br)c1C(F)(F)F | 126 to 129
Cn1nc(-c2ccccc2SCc2ccccc2)oc1=O | 137 to 140
COc1cccc2cc(C(=O)c3ccc(Cl)c(S(N)(=O)=O)c3)oc12 | 167 to 171
COc1cc2c(cc1C(F)(F)F)N(C(=O)Nc1ccccc1CCN(C)C)CC2 | 166 to 168
CC12CCC(C1)C1(C)Oc3ccc(C(=O)COc4ccc(C(=O)O)c(O)c4)cc3C21C (centres undefined) | 186 to 188
COC1(c2ccc(Sc3ccc4c(c3)CCC(=S)N4C)s2)CCOCC1 | 100 to 102
CC1CC(c2ccc(OCC(=O)O)c(Cl)c2Cl)=CC(=O)C1C (centres undefined) | 151 to 153
Cc1cc2nc(S(=O)(=O)CC(F)(F)F)[nH]c2cc1F | 164 to 166
OC[C@@H]1Cc2ccccc2CN1C(=S)Nc1cccc2cnccc12 | 190
Cc1cccc(C(=O)Cc2ccnc(N)c2)c1 | 119 to 120
CC(CCNC(=O)c1ccc(Oc2ccc(F)cc2)o1)N(O)C(N)=O (centres undefined) | 161 to 163
N=C(N)N(CCCC(C=O)NC(=O)C1CCCN1C(=O)COc1ccccc1)C(=O)OCc1ccccc1 (centres undefined) | 65 to 78
O=C(NC(=O)c1cc(F)ccc1Cl)Nc1ccc(OC(F)(F)F)cc1 | 199
O=c1ccn(CCO)c(C(O)c2ccccc2)c1O (centres undefined) | 198 to 200
O=C(Sc1ccccn1)c1ccccc1 | 48 to 50
CCCCC[C@H]1CC[C@H](c2ccc(CC(=O)OCc3ccc(C#N)cc3)cc2)CC1 | 85
CNS(=O)(=O)CC(=O)C1=C(C)NC(C)=C(C(=O)OC)C1c1cccc([N+](=O)[O-])c1 (centres undefined) | 173 to 176
Cc1ccc2nc3n(c(=O)c2c1)-c1ccccc1C3=O | 266 to 267
CC(C)(C)c1ccc(CN=C=S)cc1 | 44 to 47
Cc1ccc(C=Cc2ccccc2C(=O)O)cc1 | 80 to 82
O=C1C[C@@H](C(=O)OCc2ccccc2)N(C(=O)OCc2ccccc2)C1 | 55 to 56
CN(Cc1nc(-c2cc(C(C)(C)C)c(O)c(C(C)(C)C)c2)cs1)c1ccc([N+](=O)[O-])cc1 | 199 to 201

SMILES | melting point [°C]
CCOCc1nc(C(C)(C)O)c(C(=O)OCc2oc(=O)oc2C)n1Cc1ccc(-c2ccccc2-c2nnn[nH]2)cc1 | 166 to 168
Cc1oc(-c2cc(C(C)(C)C)c(O)c(C(C)(C)C)c2)nc1CC(=O)O | 205 to 206
CC(=O)c1nn[nH]c1-c1ccccc1 | 117 to 118
C=C(CC(=O)Nc1cc(Cl)cc(Cl)c1)C(=O)OCCCCCC | 60
O=C(O)COc1ccc(C(O)c2cccs2)c(Cl)c1Cl (centres undefined) | 163
N#Cc1cc(Cc2ccncc2)cc(-c2cccc([N+](=O)[O-])c2)c1O | 225
CC(C#N)=C1CCC2C3CCC4=CC(=O)CCC4(C)C3CCC12C (centres undefined) | 195 to 196
CCCCCNC(=O)c1ccc(Cl)nn1 | 98 to 101
C[Si](C)(C)C#Cc1ccc(C=CC2=CC(c3ccc(C#C[Si](C)(C)C)cc3)N(c3ccccc3)N2)cc1 (centres undefined) | 128 to 130
Cc1oc2c(C)c(C)c(N3C(=O)c4ccccc4C3=O)c(C)c2c1-c1ccc(C(C)C)cc1 | 232 to 234
CCOC(=O)c1cn(C)c2ccc(C(=O)c3c(C)cc4ccccn34)cc2c1=O | 232
C=Cc1cccc(N)c1 | 80
CC(C(=O)O)c1ccc2c(c1)CCc1ccccc1S2 (centres undefined) | 103 to 104
CCOc1nsc(NC(=O)NC)c1C#N | 244
O=C(NC1CCN(CCCOc2ccccc2C(=O)Nc2nnn[nH]2)CC1)c1ccccc1 | 259 to 260
Oc1cccnc1Sc1cccc(Br)c1 | 125 to 126
CC(c1ccc(OC(=O)CCl)cc1)(c1ccc(OC(=O)CCl)cc1)c1ccc(OC(=O)CCl)cc1 | 144 to 146
CCOCCOc1ccc(COc2cnn(C(C)(C)C)c(=O)c2Cl)cc1 | 82 to 83
O=C1CC2CC(C1)CN(Cc1ccccc1)C2 | 89
CN1C(=O)C(c2ccc(OC(F)F)cc2)(c2cccc(C3CC(O)C3)c2)N=C1N (centres undefined) | 186 to 190
COc1ccc2cc(C(=O)O)n(CCNC(C)=O)c2c1 | 210 to 211
COc1cc2cc(CO)c(CO)c(-c3ccnc(NN)c3)c2cc1OC | 214 to 220
CC(C)(C)COc1ccc(NC(=O)c2cc3ccccc3s2)cc1C#N | 227
COC(=O)Cc1ccc(OCCNC(=O)C2Cc3ccccc3N2S(=O)(=O)c2ccc(-c3cc(C(F)(F)F)ccc3OC)cc2)cc1 (centres undefined) | 61 to 64
COc1cc(Nc2c(C#N)cnc3cc(OCC(C)(C)CN(C)C)c(OC)cc23)c(Cl)cc1Cl | 178 to 180

SMILES | melting point [°C]
O=C(CCN1C[C@@H](O)[C@H](Oc2ccccc2)C1)c1ccc(F)cc1 (relative stereo) | 77 to 80
CSC1C(=O)CC2C3CCC4=CC(=O)C=CC4(C)C3(F)C(OC(C)=O)CC12C (centres undefined) | 235 to 237
CC(=O)Oc1cc([N+](=O)[O-])cc([N+](=O)[O-])c1OC(C)=O | 115 to 117
O=c1c2cccnc2c(-c2cccc(Cl)c2)nn1-c1ccccc1 | 144 to 145
CCCc1nc(N)nc(O)c1I | 233 to 234
CC(C)c1cn2ccccc2c1S(=O)(=O)c1ccc(OCCCN2CCN(C(c3ccccc3)c3ccccc3)CC2)cc1 | 170
O=C(OCc1ccccc1)N1CCN(c2ccc(S(=O)(=O)N3CCCC3=O)cc2)CC1 | 153 to 155
CC1(C)N=C(c2ccccc2)C(c2ccc(N)cc2)O1 (centres undefined) | 162 to 163
COc1cc(C)c(S(C)=O)cc1O (centres undefined) | 148 to 150
Nc1c(Br)cc(C(=O)CBr)cc1Br | 146 to 147
CSC(SC)=C(C#N)C(=O)NC1CCCCC1 | 103 to 105
O=C(O)Cc1ccc(Oc2ccc(CC3SC(=O)NC3=O)cc2)cc1 (centres undefined) | 166
Cc1c(C)c2c(c(C)c1N)C(c1ccccc1)C(C)(C)O2 (centres undefined) | 131 to 132
CCc1noc(C2=C(C)NC(C)=C(C(=O)OCCOC)C2c2cc(Cl)cc(Cl)c2)n1 (centres undefined) | 201 to 202
CON(C)C(=O)c1cc2n(n1)CCC2 | 45 to 50
C=CCN(CC=C)c1nc(NC(C)=O)n2oc(=O)nc2n1 | 164 to 165
CCCCn1c(=O)c2cn(S(=O)(=O)c3ccc(OC(F)(F)F)cc3)nc2n(CCCC)c1=O | 135 to 137
NS(=O)(=O)c1ccsc1CO | 85 to 89
CC1CCc2c(Cl)c(N3CCOCC3)cc3c(=O)c(C(=O)O)cn1c23 (centres undefined) | 271 to 274
CN(C(=O)OC(C)(C)C)c1cc(Oc2ccc(C(F)(F)F)cc2)ccc1[N+](=O)[O-] | 92 to 93
COc1ccc(OC)c(COc2ccc(S(=O)(=O)c3ccc(C)nc3Nc3c(C)cc(C)cc3C)cc2)c1 | 128 to 130
COC(=O)c1cccc(S(=O)(=O)Cl)c1C | 46.5 to 50
CCn1nc(OCC(=O)c2ccc(F)cc2)c(-c2ccc(F)cc2)c1-c1ccc(OC)cc1 | 170 to 171
COc1cccc(C23CCCC2C(=O)N(Cc2ccccc2)C(=O)C3)c1 (centres undefined) | 75 to 77
CC1ON=C(c2ccc(F)cc2)C1CN(O)C(N)=O (centres undefined) | 149 to 151

SMILES | melting point [°C]
CN(C)C(=N[N+](=O)[O-])N(C)Cc1ccc(Cl)nc1 | 99 to 101
O=c1cc(CN2CCCC2)[nH]c(=O)[nH]1 | 176 to 178
CCc1nc2c(-c3cc4cc(Br)oc4cc3C)ncnc2n1C(C1CC1)C1CC1 | 177 to 178
COc1c(C(C)(C)C)cc(COc2cccc(C=C3SC(=S)NC3=O)c2)cc1C(C)(C)C | 239 to 243
CC(Oc1ccc(O)cc1)C(=O)Nc1ccc(OC(F)(F)F)cc1 (centres undefined) | 74.5 to 75
CC(C)(C)OC(=O)NCCCCC(NC(=O)OCc1ccccc1)C(N)=O (centres undefined) | 140 to 142
CC1(C)CC(=O)C(C(=O)Nc2ccc(C(F)(F)F)cc2)C(=O)O1 (centres undefined) | 176
CCCCCC1=NNC(C)=C(C(=O)NN)C1c1ccccc1 (centres undefined) | 161
CN(C)C(N)=Nc1cc(Cl)ccc1N1CCOCC1 | 135 to 138
Cc1nc(C)n(-c2cc([C@@H]3C[C@H]3c3nc4ccccc4n3C)nc(C3CC3)n2)n1 (relative stereo) | 180 to 182
CCOCN1C(C)=C(C(=O)OCC)C(c2cccc([N+](=O)[O-])c2)C(C(=O)OCCBr)=C1C (centres undefined) | 102 to 104
Cc1nc(N)sc1S(=O)(=O)N(CCO)CCO | 141
CC(=O)n1nc(C)c(Oc2cc(Cl)cc(C#N)c2)c1C | < 60
COc1ccc(Cl)c2c1CCCC2=O | 46 to 48
CC(NC(=O)Cc1cc(F)cc(F)c1)C(=O)C1(N)N=C(N2CCCCC2)c2ccccc2N(C)C1=O (centres undefined) | 154 to 160
O=C(O)CCNC(=O)CNC(=O)c1csc(NC(=O)NCc2ccccc2)n1 | 174
Cc1ccc(CSc2nc(N)nc3nc[nH]c23)cc1 | 240 to 242
CCN(CC)CC1CCCCN1CCNC(=O)N1c2cccnc2NC(=O)c2c1c(C)nn2C (centres undefined) | 138 to 139
CS(=O)(=O)c1ccc(C(=O)Nc2ccc(-n3nc(C(F)(F)F)cc3C(F)(F)F)cc2)cc1 | 216 to 218
Nc1nc(F)nc2c1ncn2C1OC(CO)C(O)C1F (centres undefined) | 207 to 209
N#Cc1nn(-c2c(Cl)cc(C(F)(F)F)cc2Cl)c(-n2cncn2)c1S(=O)(=O)C(F)(F)F | 172 to 174
CC1(C)CCC(=O)Nc2ccc(Nc3ncc(Cl)c(Nc4ccccc4-c4nccs4)n3)cc21 | 224
Cc1cccc(NS(=O)(=O)c2cc(S(=O)(=O)Nc3cccc(C)c3)c3cc(O)ccc3c2)c1 | 115 to 117
Cc1cc(C(=O)c2ccccc2)c(OCCCCCCCCO)cc1N(C)C | 56.9
